The results in this text go back to US8815309B2, “Methods of treating a subject with benign prostate hyperplasia” (Zafgen, Inc., priority 2010, dated 2014).

Marks after values point to notes of the source that are not given here.

In this assay the test system is prostate gland. Kind of assay: Prostate weight in male rats after once daily intravenous infusion for four weeks. In kind it is in vivo, rat. Conditions: 15-min iv infusion once daily for four weeks, N=10. Here is the method: Male rats were divided into a control group and three test groups with 20 animals per group. Animals were administered the MetAP-2 inhibitor Compound I, represented by the formula: Compound I was prepared in a 5% mannitol solution was administered once daily for four weeks by a fifteen-minute intravenous infusion according to Table I. [table] Ten animals from each group were euthanized at the end of the four weeks. The remaining ten animals were allowed to recover for 10 additional weeks and were then euthanized.

Take `CO[C@@H]1[C@H](OC(=O)/C=C/c2ccc(OCCN(C)C)cc2)CCC2(CO2)[C@H]1[C@@]1(C)O[C@@H]1CC=C(C)C` (stereo in doubt) [Compound I]: the “Prostate Weight (g) Mean” value is, setting by setting: (0.04 mg/kg/day) 0.90** g; (0.2 mg/kg/day) 0.89** g; (1.0 mg/kg/day) 0.76** g.
